Reference: patent publication US20250042855A1, “PERIPHERALLY AND LUMINALLY-RESTRICTED INHIBITORS OF THE SEROTONIN TRANSPORTER AS TREATMENTS FOR DISORDERS OF GASTROINTESTINAL MOTILITY AND GUT-BRAIN AXIS” (The Johns Hopkins University, priority 2021, published 2025)
Counter-ions that a name gives are not always drawn.

Key:
[1] = test system: gastric emptying in C57B/6 mice; experiment: Gastric emptying (phenol red) in IBS and control mice after 10 days of oral treatment; format: in vivo; conditions: P<0.05; for gastric emptying: 10 mg/kg by gavage once a day for 10 days, versus vehicle
Text: In this experiment our aim was to study the effects of N-(2-((diaminomethylene)amino)ethyl)-4-(((3S,4R)-4-(4-fluorophenyl)piperidin-3-yl)methoxy)benzamide (example 8) in healthy mice as well as those with a model of gastrointestinal dysmotility (irritable bowel syndrome). The IBS model was induced by mild neonatal colorectal irritation in C57B/6 mice; control mice received saline. Twenty μL of 0.5% acetic acid (AA) or saline were infused into the colorectum of mice during postnatal day 9-12. Pups were weaned at 3 weeks of age and allowed to grow up normally and tested after 8-12 weeks of age.
Male IBS and control mice were treated with vehicle, Example 8 (10 mg/kg) and paroxetine (10 mg/kg) by gavage (10 ml/kg) once a day for 10 days. On the day 9, mice were fasted overnight. On the day 10, mice were treated with drugs followed by gavage with 0.3 ml of 0.05% phenol red in methylcellulose solution. Fifteen minutes later, mice were sacrificed and the stomach was removed after ligating the cardia and pylorus with hemostats. One mouse was sacrificed immediately after gavage of phenol red (0 time) used as control. The stomachs were homogenized and phenol red were extracted. After measuring the density of phenol red, the gastric empty was calculated as
The data were analyzed by Two-WAY ANOVA followed by Student-Newman-Keuls post-hoc test.

[2] = target: T1, serotonin transporter SERT (Homo sapiens, UniProt P31645); experiment: Uptake of serotonin (5-HT) in human HEK-293 cells, quantitation of [3H] serotonin; format: cell-based; conditions: HEK293, 0.25 h, 10 micromolar concentration, 15 minutes @ 25° C., read-out: Activity Range: antagonism of uptake of serotonin (5-HT)
T1 construct: host or cells: HEK-293
T1 sequence (P31645 whole entry): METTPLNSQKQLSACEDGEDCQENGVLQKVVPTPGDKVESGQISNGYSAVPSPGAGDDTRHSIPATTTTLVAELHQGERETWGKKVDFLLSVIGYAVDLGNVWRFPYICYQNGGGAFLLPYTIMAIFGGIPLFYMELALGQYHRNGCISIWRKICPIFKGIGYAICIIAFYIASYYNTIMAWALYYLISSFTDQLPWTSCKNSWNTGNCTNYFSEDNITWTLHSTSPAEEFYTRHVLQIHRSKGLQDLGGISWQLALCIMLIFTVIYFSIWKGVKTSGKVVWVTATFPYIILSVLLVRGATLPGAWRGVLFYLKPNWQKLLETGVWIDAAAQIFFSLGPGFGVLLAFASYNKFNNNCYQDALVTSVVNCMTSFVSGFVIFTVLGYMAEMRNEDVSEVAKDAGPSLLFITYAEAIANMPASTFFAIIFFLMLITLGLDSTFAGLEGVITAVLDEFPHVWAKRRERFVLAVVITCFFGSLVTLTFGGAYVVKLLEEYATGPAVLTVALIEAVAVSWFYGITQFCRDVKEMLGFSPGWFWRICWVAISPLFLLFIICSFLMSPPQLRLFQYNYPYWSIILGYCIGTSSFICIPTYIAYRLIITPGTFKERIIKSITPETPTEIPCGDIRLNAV
Method: Uptake of serotonin (5-Hydroxytryptamine (5-HT)) in human HEK-293 cells embryonic kidney was measured according to the literature procedure by Gu H, Wall S. C. and Rudnick G. J Biol Chem. 1994 269, 7124. Using the following conditions: • Quantitation Method: Quantitation of [^3H] Serotonin • Vehicle: 0.50% DMSO • Incubation Time/Temp: 15 minutes @ 25° C. • Incubation Buffer: 5 mM Tris —HCl, 7.5 mM HEPES, pH 7.1, 120 mM NaCl, 5.4 mM KCl, • 1.2 mM CaCl2, 1.2 mM MgSO4, 5 mM DGlucose, 1 mM Ascorbic Acid
Any compound with minimum of 20% antagonism at 10 micromolar concentration as described above, is deemed a SERT inhibitor.

[3] = IBS mice (neonatal acetic acid colorectal irritation)

SMILES	inhibition at 10 µM [2]	also measured
Fc1ccc([C@@H]2CCNC[C@H]2COc2ccc3c(c2)OCO3)cc1 [paroxetine, reference compound]		gastric emptying [1, 3]: not observed; gastric emptying ([1]; saline (control) mice): not observed
O=C(O)c1ccc(OC[C@@H]2CNCC[C@H]2c2ccc(F)cc2)cc1 [Example 1, 4-(((3S,4R)-4-(4-fluorophenyl)piperidin-3-yl)methoxy)benzoic acid hydrochloride]	> 50%	
NCCNC(=O)c1ccc(OC[C@@H]2CNCC[C@H]2c2ccc(F)cc2)cc1 [Example 5, N-(2-aminoethyl)-4-(((3S,4R)-4-(4-fluorophenyl)piperidin-3-yl)-methoxy)benzamide hydrochloride]	> 50%	
C[N+]1(C)CC[C@@H](c2ccc(F)cc2)[C@H](CCc2ccc3c(c2)OCO3)C1 [Example 17, (3S,4R)-3-(2-(benzo[d][1,3]dioxol-5-yl)ethyl)-4-(4-fluorophenyl)-1,1-dimethylpiperidin-1-ium iodide]	> 50%	
O=C(O)c1cccc(OC[C@@H]2CNCC[C@H]2c2ccc(F)cc2)c1 [Example 2, 3-(((3S,4R)-4-(4-fluorophenyl)piperidin-3-yl)methoxy)benzoic acid hydrochloride]	40 to 50%	
CN(C)CCN(C)C(=O)c1ccc(OC[C@@H]2CNCC[C@H]2c2ccc(F)cc2)cc1 [Example 7, N-(2-(dimethylamino)ethyl)-4-(((3S,4R)-4-(4-fluorophenyl)piperidin-3-yl)methoxy)-N-methylbenzamide hydrochloride]	> 50%	
CN(C)CCOc1ccc(OC[C@@H]2CNCC[C@H]2c2ccc(F)cc2)cc1 [Example 11, 2-(4-(((3S,4R)-4-(4-fluorophenyl)piperidin-3-yl)methoxy)phenoxy)-N,N-dimethylethan-1-amine hydrochloride]	40 to 50%	
OCCOc1ccc(OC[C@@H]2CNCC[C@H]2c2ccc(F)cc2)cc1 [Example 13, 2-(4-(((3S,4R)-4-(4-fluorophenyl)piperidin-3-yl)methoxy)phenoxy)ethan-1-ol hydrochloride]	> 50%	
CN(C)CCCOc1ccc(OC[C@@H]2CNCC[C@H]2c2ccc(F)cc2)cc1 [Example 12, 3-(4-(((3S,4R)-4-(4-fluorophenyl)piperidin-3-yl)methoxy)phenoxy)-N,N-dimethylpropan-1-amine hydrochloride]	> 50%	
OCCOCCOc1ccc(OC[C@@H]2CNCC[C@H]2c2ccc(F)cc2)cc1 [Example 14, 2-(2-(4-(((3S,4R)-4-(4-fluorophenyl)piperidin-3-yl)methoxy)phenoxy)ethoxy)ethan-1-ol hydrochloride]	20 to 40%	
O=C(O)c1ccc(OC[C@@H]2CNCC[C@H]2c2ccc(F)cc2)cc1O [Example 3, 4-(((3S,4R)-4-(4-fluorophenyl)piperidin-3-yl)methoxy)-2-hydroxybenzoic acid hydrochloride]	> 50%	
O=C(O)COCCOc1ccc(OC[C@@H]2CNCC[C@H]2c2ccc(F)cc2)cc1 [Example 16, 2-(2-(4-(((3S,4R)-4-(4-fluorophenyl)piperidin-3-yl)methoxy)phenoxy)-ethoxy)acetic acid hydrochloride]	20 to 40%	
NC(N)=NCCNC(=O)c1ccc(OC[C@@H]2CNCC[C@H]2c2ccc(F)cc2)cc1 [Example 8, N-(2-((diaminomethylene)amino)ethyl)-4-(((3S,4R)-4-(4-fluorophenyl)piperidin-3-yl)methoxy)benzamide]	> 50%	liquid gastric emptying ([1]; FIG. 1, chronic treatment, versus H2O treated group in the same model): increases; gastric emptying [1, 3]: significantly increased; gastric emptying ([1]; saline (control) mice): significantly increased
NCCOc1ccc(OC[C@@H]2CNCC[C@H]2c2ccc(F)cc2)cc1 [Example 10, 2-(4-(((3S,4R)-4-(4-fluorophenyl)piperidin-3-yl)methoxy)phenoxy)-ethan-1-amine hydrochloride]	40 to 50%	
O=C(O)COc1ccc(OC[C@@H]2CNCC[C@H]2c2ccc(F)cc2)cc1 [Example 15, 2-(4-(((3S,4R)-4-(4-fluorophenyl)piperidin-3-yl)methoxy)phenoxy)acetic acid hydrochloride]	20 to 40%	
CN(C)CCNC(=O)c1ccc(OC[C@@H]2CNCC[C@H]2c2ccc(F)cc2)cc1 [Example 6, N-(2-(dimethylamino)ethyl)-4-(((3S,4R)-4-(4-fluorophenyl)piperidin-3-yl)methoxy)benzamide hydrochloride]	> 50%	
NC(=O)NCCNC(=O)c1ccc(OC[C@@H]2CNCC[C@H]2c2ccc(F)cc2)cc1 [Example 9, 4-(((3S,4R)-4-(4-fluorophenyl)piperidin-3-yl)methoxy)-N-(2-ureidoethyl)benzamide hydrochloride]	> 50%	
COc1ccc(OC[C@@H]2CNCC[C@H]2c2ccc(F)cc2)cc1C(=O)O [Example 4, 5-(((3S,4R)-4-(4-fluorophenyl)piperidin-3-yl)methoxy)-2-methoxybenzoic acid hydrochloride]	> 50%	
